The supplement of paper PMC11061612

Assays:
[1] = tested on: COR-L279 (Small Cell Lung Carcinoma); assay: Bliss excess, mean over the matrix (fraction); higher = more synergy
Procedure, shortened: (§1)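 After 24 hours at 37°C and 5% CO2 in 1536-well plates, cells in DMEM/F12 or RPMI plus 10% FBS received two-drug dose matrices for 72 hours. Viability came from CellTiter-Glo 2.0 luminescence and was scaled as inhibition, anchored at 0 by vehicle wells and at 1 by blank wells. Combination Emax is taken as the second-highest inhibition in the matrix, and Bliss excess as the observed combination effect less EA + EB − EA·EB, with EA and EB the single-agent effects.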

[2] = tested on: CW-2 (Colorectal Carcinoma); assay: as above
Procedure, shortened: as §1

[3] = tested on: DMS-114 (Small Cell Lung Carcinoma); assay: as above
Procedure, shortened: as §1

[4] = tested on: KP-3 (Pancreatic Carcinoma); assay: as above
Procedure, shortened: as §1

[5] = tested on: KU812 (Chronic Myelogenous Leukemia); assay: as above
Procedure, shortened: as §1

[6] = tested on: KYSE-270 (Esophageal Squamous Cell Carcinoma); assay: as above
Procedure, shortened: as §1

M059J (Glioblastoma) = assay: as above
Procedure, shortened: as §1

[7] = tested on: MN-60 (B-Lymphoblastic Leukemia); assay: as above
Procedure, shortened: as §1

[8] = tested on: MOG-G-CCM (Low Grade Glioma); assay: as above
Procedure, shortened: as §1

[9] = tested on: NCCIT (Other Solid Carcinomas); assay: as above
Procedure, shortened: as §1

NCI-H2731 (Mesothelioma) [10] = assay: as above
Procedure, shortened: as §1

[11] = tested on: NCI-H3122 (Lung Adenocarcinoma); assay: as above
Procedure, shortened: as §1

[12] = tested on: NCI-H520 (Squamous Cell Lung Carcinoma); assay: as above
Procedure, shortened: as §1

[13] = tested on: NCI-H526 (Small Cell Lung Carcinoma); assay: as above
Procedure, shortened: as §1

[14] = tested on: NCI-H929 (Plasma Cell Myeloma); assay: as above
Procedure, shortened: as §1

[15] = tested on: OCI-AML3 (Acute Myeloid Leukemia); assay: as above
Procedure, shortened: as §1

SJSA-1 (Osteosarcoma) = assay: as above
Procedure, shortened: as §1

[16] = tested on: SK-GT-4 (Esophageal Adenocarcinoma); assay: as above
Procedure, shortened: as §1

[17] = tested on: ST486 (Burkitt's Lymphoma); assay: as above
Procedure, shortened: as §1

NCI-H2731 (Mesothelioma) [18] = assay: combination Emax (second highest fraction inhibited in the dose matrix, 72 h); higher = more inhibition; extreme values may be limits of the assay
Procedure, shortened: as §1
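Throughout, for Bliss excess, mean over the matrix: after 72 h of two-drug dosing.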

Row | Compound | Bliss excess [1] | Bliss excess [2] | Bliss excess [3] | Bliss excess [4] | Bliss excess [5] | Bliss excess [6] | Bliss excess (M059J (Glioblastoma)) | Bliss excess [7] | Bliss excess [8] | Bliss excess [9] | Bliss excess (NCI-H2731 (Mesothelioma) [10]) | Bliss excess [11] | Bliss excess [12] | Bliss excess [13] | Bliss excess [14] | Bliss excess [15] | Bliss excess (SJSA-1 (Osteosarcoma)) | Bliss excess [16] | Bliss excess [17] | combination Emax (NCI-H2731 (Mesothelioma) [18])
1 | C=CCn1c(=O)c2cnc(Nc3ccc(N4CCN(C)CC4)cc3)nc2n1-c1cccc(C(C)(C)O)n1 [AZD1775] + CCc1c2c(nc3ccc(O)cc13)-c1cc3c(c(=O)n1C2)COC(=O)[C@]3(O)CC [SN-38] (first compound max 1 µM, partner max 0.3 µM) | -0.0425 | -0.0515 | -0.0439 | -0.067 | -0.0318 | 0.0029 | 0.0051 | -0.0244 | -0.053 | -0.0342 | -0.0744 | -0.0233 | -0.0637 | -0.0476 | -0.0303 | -0.103 | -0.0742 | 0.0211 | -0.0359 | 0.496
2 | CN(CCO)CC[C@H](CSc1ccccc1)Nc1ccc(S(=O)(=O)NC(=O)c2ccc(N3CCC([C@@H](O)c4ccccc4-c4ccc(Cl)cc4)CC3)cc2)cc1S(=O)(=O)C(F)(F)F [AZD4320] + CC(=O)O[C@H]1C(=O)[C@@]2(C)[C@H]([C@H](OC(=O)c3ccccc3)[C@]3(O)C[C@H](OC(=O)[C@H](O)[C@@H](NC(=O)c4ccccc4)c4ccccc4)C(C)=C1C3(C)C)[C@]1(OC(C)=O)CO[C@@H]1C[C@@H]2O [Paclitaxel] (first compound max 1 µM, 7x7, partner max 3 µM) | 0.0141 | -0.0328 | 0.0486 | 0.131 | -0.0252 | 0.0171 | 0.0756 | 0.0332 | 0.0506 | 0.0317 | 0.0876 | 0.0379 | 0.0142 | 0.0193 | -0.0687 | 0.007 | 0.0637 | 0.0543 | -0.0016 | 0.932
3 | CN(CCO)CC[C@H](CSc1ccccc1)Nc1ccc(S(=O)(=O)NC(=O)c2ccc(N3CCC([C@@H](O)c4ccccc4-c4ccc(Cl)cc4)CC3)cc2)cc1S(=O)(=O)C(F)(F)F [AZD4320] + CS(=O)(=O)CCNCc1ccc(-c2ccc3ncnc(Nc4ccc(OCc5cccc(F)c5)c(Cl)c4)c3c2)o1 [Lapatinib] (first compound max 1 µM, 7x7, partner max 10 µM) | 0.0862 | -0.0322 | 0.0146 | -0.0588 | 0.0801 | -0.0254 | 0.0681 | -0.0716 | -0.0278 | 0.0212 | -0.0076 | 0.0006 | -0.0382 | 0.0898 | 0.0248 | 0.0258 | -0.085 | 0.0451 | 0.0668 | 0.858
4 | Cc1c2c(nn1C)CSCc1cc(n(C)n1)CSc1cc(c3ccccc3c1)OCCCc1c(C(=O)O)n(C)c3c-2c(Cl)ccc13 [AZD5991] + CC(=O)O[C@H]1C(=O)[C@@]2(C)[C@H]([C@H](OC(=O)c3ccccc3)[C@]3(O)C[C@H](OC(=O)[C@H](O)[C@@H](NC(=O)c4ccccc4)c4ccccc4)C(C)=C1C3(C)C)[C@]1(OC(C)=O)CO[C@@H]1C[C@@H]2O [Paclitaxel] (first compound max 1 µM, 7x7, partner max 3 µM) | 0.0035 | -0.0199 | 0.0975 | -0.0622 | -0.108 | -0.0116 | -0.0193 | -0.0293 | 0.0341 | 0.0449 | 0.0237 | -0.0003 | -0.0478 | 0.0061 | -0.0219 | 0.0141 | -0.0168 | -0.0197 | -0.0046 | 0.397
5 | Cc1c2c(nn1C)CSCc1cc(n(C)n1)CSc1cc(c3ccccc3c1)OCCCc1c(C(=O)O)n(C)c3c-2c(Cl)ccc13 [AZD5991] + CS(=O)(=O)CCNCc1ccc(-c2ccc3ncnc(Nc4ccc(OCc5cccc(F)c5)c(Cl)c4)c3c2)o1 [Lapatinib] (first compound max 1 µM, 7x7, partner max 10 µM) | -0.0053 | 0.0142 | -0.0358 | -0.003 | -0.0005 | 0.016 | -0.0103 | -0.0584 | -0.0322 | -0.0119 | 0.0234 | -0.0164 | 0.0111 | 0.0226 | -0.0113 | -0.0516 | -0.0115 | 0.0391 | -0.0655 | 0.44
6 | C[C@@H]1COCCN1c1cc(C2([S@](C)(=N)=O)CC2)nc(-c2ccnc3[nH]ccc23)n1 [AZD6738] + C1CC(C1)(C(=O)[O-])C(=O)[O-].N.N.[Pt+2] [Carboplatin] (first compound max 10 µM, 7x7, partner max 10 µM) | -0.0178 | -0.0212 | -0.095 | -0.0087 | -0.0691 | 0.0445 | -0.0647 | -0.119 | -0.0204 | -0.0274 | -0.0109 | -0.0999 | -0.0017 | -0.0076 | -0.0536 | -0.0326 | -0.0152 | -0.0516 | -0.0501 | 0.399
7 | Cc1cc2ncnn2cc1Nc1ncc2c(n1)n(C1CCOCC1)c(=O)n2C [AZD7648] + COc1cc([C@@H]2c3cc4c(cc3[C@@H](O[C@@H]3O[C@@H]5CO[C@@H](C)O[C@H]5[C@H](O)[C@H]3O)[C@H]3COC(=O)[C@H]23)OCO4)cc(OC)c1O [Etoposide] (first compound max 10 µM, 7x7, partner max 10 µM) | 0.149 | 0.0573 | 0.0198 | -0.0136 | 0.035 | 0.0627 | 0.003 | 0.06 | 0.106 | 0.0365 | 0.08 | 0.0903 | 0.0639 | 0.121 | 0.033 | 0.123 | 0.0316 | 0.0096 | 0.0989 | 0.542
8 | C[C@@H](Nc1cc(F)cc(F)c1)c1cc(C(=O)N(C)C)cc2c(=O)cc(N3CCOCC3)oc12 [AZD8186] + C1CN(CCC1(C(=O)N[C@@H](CCO)C2=CC=C(C=C2)Cl)N)C3=NC=NC4=C3C=CN4 [AZD5363] (first compound max 10 µM, 7x7, partner max 10 µM) | 0.0622 | -0.0086 | 0.0545 | -0.0207 | -0.053 | 0.0302 | -0.0145 | -0.0655 | -0.058 | 0.0368 | -0.0476 | 0.0211 | -0.034 | -0.0238 | -0.0035 | 0.031 | -0.0208 | -0.0478 | -0.0265 | 0.305
9 | C[C@@H](Nc1cc(F)cc(F)c1)c1cc(C(=O)N(C)C)cc2c(=O)cc(N3CCOCC3)oc12 [AZD8186] + CC(=O)c1c(C)c2cnc(Nc3ccc(N4CCNCC4)cn3)nc2n(C2CCCC2)c1=O [Palbociclib] (first compound max 10 µM, 7x7, partner max 10 µM) | 0.147 | 0.0464 | 0.0178 | 0.0123 | 0.0412 | -0.0036 | -0.006 | -0.0082 | 0.0077 | 0.0183 | -0.0036 | 0.0528 | 0.111 | -0.0207 | -0.0272 | 0.0401 | -0.0268 | -0.0649 | 0.0478 | 0.233
10 | C[C@@H](Oc1cc(-c2cnn(C3CCNCC3)c2)cnc1N)c1c(Cl)ccc(F)c1Cl [Crizotinib] + CC1=C(C(=CC=C1)Cl)NC(=O)C2=CN=C(S2)NC3=CC(=NC(=N3)C)N4CCN(CC4)CCO [Dasatinib] (first compound max 10 µM, 7x7, partner max 2 µM) | 0.0599 | -0.0315 | -0.0562 | -0.057 | 0.0121 | 0.0481 | 0.024 | -0.0074 | 0.0574 | -0.0416 | 0.0443 | -0.0882 | 0.0375 | -0.0339 | -0.0147 | 0.0207 | -0.0238 | 0.0033 | 0.0506 | 0.888
11 | C[C@@H](Oc1cc(-c2cnn(C3CCNCC3)c2)cnc1N)c1c(Cl)ccc(F)c1Cl [Crizotinib] + Cn1cnc2c(F)c(Nc3ccc(Br)cc3Cl)c(C(=O)NOCCO)cc21 [Selumetinib] (first compound max 10 µM, 7x7, partner max 10 µM) | -0.0192 | -0.0423 | -0.0814 | -0.0229 | -0.0466 | 0.0039 | -0.0562 | -0.0797 | -0.0423 | -0.0503 | -0.0382 | -0.0479 | -0.0779 | -0.0142 | -0.0421 | -0.0401 | 0.0262 | -0.0405 | -0.0819 | 0.519
12 | O=C(c1cc(Cc2n[nH]c(=O)c3ccccc23)ccc1F)N1CCN(C(=O)C2CC2)CC1 [Olaparib] + CC1(C)CCC(CN2CCN(c3ccc(C(=O)NS(=O)(=O)c4ccc(NCC5CCOCC5)c([N+](=O)[O-])c4)c(Oc4cnc5[nH]ccc5c4)c3)CC2)=C(c2ccc(Cl)cc2)C1 [Venetoclax] (first compound max 10 µM, 7x7, partner max 1 µM) | 0.0109 | -0.0299 | -0.0446 | -0.0562 | -0.0241 | -0.0027 | -0.0001 | -0.0502 | -0.0459 | 0.0127 | -0.047 | -0.0681 | -0.0201 | 0.0372 | -0.0036 | 0.0202 | -0.0375 | -0.056 | -0.0134 | 0.0659
13 | O=C(c1cc(Cc2n[nH]c(=O)c3ccccc23)ccc1F)N1CCN(C(=O)C2CC2)CC1 [Olaparib] + COc1nnc2ccc(N3CCC(c4ccc(OCCN5CCN(C)C(=O)[C@H]5C)cc4)CC3)nn12 [AZD5153] (first compound max 10 µM, 7x7, partner max 1 µM) | 0.0327 | -0.0592 | -0.13 | -0.0554 | -0.0778 | 0.0235 | -0.0672 | -0.0721 | -0.0569 | -0.0739 | -0.0208 | -0.0021 | -0.0134 | -0.0689 | -0.0516 | -0.0369 | -0.0323 | -0.0894 | -0.0433 | 0.362
14 | N#Cc1cnc(Nc2cc(NC[C@H]3CNCCO3)c(C(F)(F)F)cn2)cn1 [SRA737] + O=c1[nH]cc(F)c(=O)[nH]1 [5-Fluorouracil] (first compound max 10 µM, 7x7, partner max 20 µM) | 0.077 | 0.0039 | -0.0757 | – | -0.0726 | 0.127 | 0.0052 | -0.0751 | -0.001 | -0.0561 | -0.0374 | 0.0315 | -0.0306 | 0.0854 | 0.0184 | 0.0646 | 0.0126 | -0.0187 | 0.0098 | 0.172
